Publication PMC5626019 (Nature, 2017)
One block for each substance: values may come before it. No end group written: not given here.

Experiments:
[1] = target: purified HLA A*11:01 molecules (Homo sapiens, UniProt P04439, A114D/D185E/E176A/F33Y/L180Q/S129P/T187R); assay: HLA class I competition binding assay; details: for binding, in words: purified HLA A*11:01 in vitro
[2] = test system: DQB1*05:01; details: competition binding to purified MHC
[3] = test system: DQB1*04:02; details: competition binding to purified MHC
[4] = test system: 26 common HLA class II alleles; assay: HLA class II competition binding, panel of common alleles; design: species or system human
[5] = test system: PBMC; assay: IFNγ and IL-5 dual ELISPOT after 14 days culture; format: cell-based, human

Substance: MPVDPDNEAYEMPSE
binding, in words [4]: bound several alleles with lower affinity

Substance: GKTKEGVLYVGSKTK
T cell response, in words ([5]; PBMC stimulated 14 days, peptides 5 μg/ml): apparent Class II restricted IL-5 and IFNγ response

Substance: VLYVGSKTK
IC50 [1]: 0.161 µM

Substance: phosphorylated aaS129 aa116MPVDPDNEAYEMPSEaa130: phosphorylated aaS129 epitope
IL-5 responses in PD compared with HC ([5]; p=0.02, Fisher's exact test, 300 SFC threshold): markedly higher

Further lines, results first:

binding, in words [1]: bound poorly
Substance: VLYVGSKTKK

binding, in words [2]: low affinity
binding, in words [3]: low affinity
Substance: EMPSEEGYQDYEPEA

binding, in words [2]: strongly bound
Substance: DNEAYEMPSEEGYQD

binding, in words [1]: bound poorly
Substance: GVLYVGSKTK
